Data on one molecule can be found in patent publication US20240116900A1, “NEW CRYSTALLINE FORMS OF A KRAS G12C INHIBITOR COMPOUND” (NOVARTIS AG, priority 2020, published 2024).

The target in assay [1] is T1, KRAS G12C (Homo sapiens, UniProt P01116, G12C). Description: Covalent inhibition / binding of KRAS G12C. The note with it: binds KRAS G12C and traps it into inactive GDP-bound state.
For assay [2], the system named is KRAS G12C mutant xenograft and patient-derived xenograft tumor models. The assay is described as follows: Xenograft and patient-derived xenograft tumor models. The format is in vivo. The note with it: mice.
The subject of assay [3] is KR ASG12C mutant cell lines. The assay is described as follows: Cellular assays: KRAS-driven oncogenic signaling and proliferation. The class given is cell-based. The note with it: specifically in KRAS G12C mutant cell lines.
For assay [4], the target named is T1, KRAS G12C. Description: Cellular assay: downstream effector protein recruitment. The class given is cell-based. The note with it: cellular assays.

As to `C=CC(=O)N1CC2(CC(n3nc(-c4ccc5c(cnn5C)c4)c(-c4c(Cl)c(C)cc5[nH]ncc45)c3C)C2)C1` (single isomer, unassigned) [Compound A, 1-{6-[(4M)-4-(5-chloro-6-methyl-1H-indazol-4-yl)-5-methyl-3-(1-methyl-1H-indazol-5-yl)-1H-pyrazol-1-yl]-2-azaspiro[3.3]heptan-2-yl}prop-2-en-1-one], the “inhibition of KRAS G12C” value at KRAS G12C [1] is “potent and selective covalent inhibitor”. Further, in assay [2], the antitumor activity entry is given as “dose-dependent antitumor activity” and the “expression of the MAPK pathway target gene dual-specific phosphatase 6 (DUPS6)” value was “reduction of expression”. Besides, the “KRAS-driven oncogenic signaling and proliferation” value in assay [3] was “inhibited”. In addition, the “downstream effector protein recruitment to KRAS G12C” value on KRAS G12C [4] is “selectively inhibited”.
